Measured values published in patent US20250034115A1, “CRYSTALLINE FORMS OF C-C CHEMOKINE RECEPTOR TYPE 4 ANTAGONIST AND USES THEREOF” (RAPT THERAPEUTICS, INC., priority 2023, published 2025).

Assay: Salt screen, comments on water content / hydration versus humidity
Format: physicochemical
Procedure: Experiments to form salts were performed and evaluated using 45 different acids and bases and 15 different solvents, either alone or in some combination, which are listed in Table 1 below, and notable results of those experiments are presented in Table 2 below. L-arginine Saccharin Methyl isobutyl ketone

hygroscopicity (Additional Comments) (1.0 equiv, water, highly variable water content based on humidity)	SMILES	level of hydration over humidity range (Additional Comments) (0.5 equiv, polymorph formed at higher (>70° C.) temperature compared with polymorph formed at ambient temp)
–	O=C(O)[C@H](O)[C@@H](O)C(=O)O [L-Tartaric Acid]	temperature had a more stable level
Highly hydroscopic (highly variable	Cc1nc(N2CC([C@H]3CCCN([C@H]4C[C@](C)(C(=O)[O-])C4)C3)C2)nc(N[C@H](C)c2ccc(Cl)cc2Cl)c1Cl.[Na+] [NaOH, (1R,3r)-3-((R)-3-(1-(5-chloro-4-(((R)-1-(2,4-dichlorophenyl)ethyl)amino)-6-methylpyrimidin-2-yl)azetidin-3-yl)piperidin-1-yl)-1-methylcyclobutane-1-carboxylic acid, sodium salt]	–
